From the supplement of paper PMC11451515

Test system: NOMO1
Assay: cell viability relative to DMSO control; higher = less cytotoxic
Conditions: 48 h
Procedure, shortened: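 Three leukemia lines were tested: NOMO1 and SEM at 500 cells/well and P12-Ichikawa at 1000 cells/well. Each was adapted for at least four passages in each medium and seeded in 5 μl in 1536-well plates, and library compounds in DMSO were pin-dosed from 47 μM to 0.79 nM in 11 threefold steps. After 48 h at 37°C, CellTiter-Glo One luminescence was read. Viability is a percentage relative to DMSO wells on each plate, with cell-free wells as background.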

Cc1n[nH]c2ccc(-c3cncc(OC[C@@H](N)Cc4ccccc4)c3)cc12
cell viability [%]
Conditions	RPMI 5 mM glucose + 10% FBS	RPMI 5 mM glucose + 10% dialyzed FBS
0.000781 µM	127	134
0.00234 µM	118	124
0.00702 µM	113	120
0.0211 µM	125	114
0.0632 µM	120	133
0.19 µM	113	83.5
0.569 µM	110	109
1.71 µM	99.7	77.9
5.12 µM	23.6	15.1
15.4 µM	12.9	8.65
46.1 µM	5.8	4.35
